Results on two compounds are retold here after ChEMBL document CHEMBL4330173, “TRPV1 Modulators for the Treatment of Pain and Inflammation” (ACS Med Chem Lett, 2019).

Assay [1] concerns the target T1, Transient receptor potential cation channel subfamily V member 1 (Rattus norvegicus, UniProt O35433). Kind of assay: Agonist activity at rat TRPV1 expressed in human SH-SY5Y cells assessed as intracellular calcium accumulation by Fluo-4 NW dye based fluorescence assay. The assay is classed as cell-based.
For assay [2], the target named is T1, Transient receptor potential cation channel subfamily V member 1. The assay can be described thus: Antagonist activity at rat TRPV1 expressed in human SH-SY5Y cells assessed as reduction in capsaicin-induced intracellular calcium accumulation preincubated with cells followed by capsaicin addition by Fluo-4 NW dye based fluorescence assay. The assay is classed as cell-based. For orientation: Calcium assays in cells follow changes in intracellular calcium, usually with a dye or a luminescent sensor.

T1 sequence (O35433 whole entry): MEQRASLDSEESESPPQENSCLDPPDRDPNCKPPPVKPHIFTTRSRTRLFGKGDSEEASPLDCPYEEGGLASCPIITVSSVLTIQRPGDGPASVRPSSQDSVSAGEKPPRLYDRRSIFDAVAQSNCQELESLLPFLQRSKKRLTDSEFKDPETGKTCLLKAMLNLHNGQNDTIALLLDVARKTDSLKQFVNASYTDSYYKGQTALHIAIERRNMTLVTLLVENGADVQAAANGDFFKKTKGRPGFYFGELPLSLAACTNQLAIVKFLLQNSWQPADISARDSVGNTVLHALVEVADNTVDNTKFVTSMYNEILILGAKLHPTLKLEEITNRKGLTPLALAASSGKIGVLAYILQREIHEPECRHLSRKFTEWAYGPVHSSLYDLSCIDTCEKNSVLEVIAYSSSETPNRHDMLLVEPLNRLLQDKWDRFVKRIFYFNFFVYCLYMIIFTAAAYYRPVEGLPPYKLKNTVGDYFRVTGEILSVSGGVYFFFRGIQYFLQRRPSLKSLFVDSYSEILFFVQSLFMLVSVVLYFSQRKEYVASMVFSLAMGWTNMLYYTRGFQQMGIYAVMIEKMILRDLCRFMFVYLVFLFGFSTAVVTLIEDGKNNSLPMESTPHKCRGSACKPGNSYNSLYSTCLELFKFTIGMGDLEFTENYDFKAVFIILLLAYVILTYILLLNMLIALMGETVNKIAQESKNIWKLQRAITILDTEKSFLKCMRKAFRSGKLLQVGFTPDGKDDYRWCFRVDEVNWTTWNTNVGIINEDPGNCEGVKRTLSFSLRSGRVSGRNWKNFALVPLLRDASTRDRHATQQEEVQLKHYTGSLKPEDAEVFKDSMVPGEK

A word on the EC50: it is the concentration at which the effect is half-maximal. Consider `CC(C)=CCC/C(C)=C/CC/C(C)=C/CC/C=C(\C)CC/C=C(\C)CCC(=O)OCC(=O)NCc1ccc(O)c(O)c1`, for which, in assay [1], the EC50 was 15 nM.

One may read the IC50 as the concentration that gives 50% inhibition. Consider `COc1cc(CNC(=O)COC(=O)/C=C(\C)CCC=C(C)C)c(I)cc1O`, for which the IC50 in assay [2] came to 320 nM.
